According to patent US20110212108A1, “NEUREGULIN/ERBB SIGNALING AND INTEGRIN” (THE REGENTS OF THE UNIVERSITY OF CALIFORNIA, priority 2008, published 2011):

B1: 3KE (175-241): NRG1α (175-241) with Lys181/Lys185/Lys187 mutated to Glu, SEQ ID NO:6 (3KE, long version) (protein)
chain: GTSHLVECAEEEETFCVNGGECFMVKDLSNPSRYLCKCQPGFTGARCTENVPMKVQNQEKAEELYQK
modifications: integrin-binding site within human neuregulin, residues 175-241of human neuregulin 1alpha, long version, 3KE mutant

Key:
B16F10 melanoma cells = assay: Western blotting of signaling in B16F10 cells; format: cell-based, mouse; conditions: 10 ng/ml
Protocol: FIG. 11. […] Cells were serum starved and stimulated with 10 ng/ml wt or mutant NRG1 (175-222). Cell lysates were analyzed by western blotting.
Cell proliferation: cells were starved by culturing DMEM with low-level FCS (e.g., 0.4%) overnight and then treated with the wt or mutant NRG1 (175-222) (up to 100 ng/ml). The cells were harvested in 15 min to 6 h after stimulation and cell lysates analyzed by western blotting with antibodies specific to signaling molecules. Alternatively, cells were cultured for 24-48 h after stimulation for testing proliferation or cell viability by MTS assays. Statistical analysis and calculation of kinetic constants were performed using Prism software (Graphpad).
Signaling: The levels of cell proliferation were measured by MTS assays and the kinetic data were analyzed by using Prism software (Graphpad). Melanoma cells were cultured in the presence of wt or mutant NRG1 (175-222), and the levels of ErbB2 and B3 phosphorylation, MAP kinase activation, or activation of other signaling molecules in the cell lysates were monitored by immunoprecipitating ErbB2 and B3 from the lysates and detecting tyrosine phosphorylation by western blotting with anti-phosphotyrosine antibodies (the IP-Western method) for ErbB2 and B3. Alternatively, anti-phospho ErbB2 or B3 antibodies (commercially available) and anti-phospho ERK1/2 antibodies were used.

[1] = test system: Met-1 tumor (a highly metastatic mouse breast cancer); assay: Met-1 tumor transplanted subcutaneously into nude mice; format: in vivo; conditions: 100 ng/mouse/day intraperitoneally, 5 days a week; P<0.0001
Protocol: FIG. 15. 3KE (175-222) mutant suppressed tumorigenesis in a xenograft experiment with highly metastatic Met-1 tumor. Met-1 tumor (a highly metastatic mouse breast cancer) (4×4×4 mm) was transplanted subcutaneously into nude mice. The 3KE (175-222) mutant or vehicle was intraperitoneally injected ([…] 5 days a week) to mice, starting day 0. Data are shown as means+/−SEM. P<0.0001 by 2-way ANOVA (n=2 for control and n=3 for 3KE).
It was tested whether intraperitoneal injection of 3KE (175-222) can affect tumor growth in vivo. The Met-1 line (a highly metastatic mouse mammary tumor) (Guy et al. 1992; Cheung et al. 1997) has the polyoma virus middle T (PyV-MT) transgene, and metastasize with 100% efficiency. Met-1 (4mm×4 mm×4 mm) was transplanted to nude mice and 3KE (175-222) (100 ng/mouse/day 5 days a week) was intraperitoneally injected.

[2] = test system: mammary intraepithelial neoplasia-outgrowth (MIN-O); assay: Outgrowth of precancer (MIN-O) in FVB mice; format: in vivo; conditions: 200 ng/day/mouse intraperitoneally, 5 days a week for 4 weeks; P=0.0355
Protocol: FIG. 16. Inhibitory effect of daily intraperitoneal injection of 3KE (175-222) on the outgrowth of precancer (MIN-O) in FVB mice. MIN-O was transplanted into fat pads of FVB mice (two per mice) and 3KE (175-222) (200 ng/mouse/day) was injected 5 days a week for 4 weeks starting day 0. After 28 days, mice were sacrificed and the dimensions of tumors were measured. Since MIN-O grows as a thin layer, the two-dimensional size was calculated and the thickness was ignored. P=0.0355 by ANOVA between control and 3KE (175-222).
To study the effect of 3KE (175-222) on the premalignant cancer, transplantable mammary intraepithelial neoplasia-outgrowth (MIN-O) tissue lines, which were derived from hyperplastic mammary lesions in young Tg(MMTV-PyV-mT) females (Maglione et al. 2004), were used. The resulting lesions mimic the biological behavior, molecular biology, and histopathology of human ductal carcinoma in situ (Maglione et al. 2004). One mm^3 pieces of the 8w-BMINO tissues (Maglione et al. 2004) were transplanted to gland-cleared no. 4 mammary fat pads of 3-week-old FVB females bilaterally.

HaCAT keratinocytes = assay: ERK1/2 activation in HaCAT keratinocytes, Western blotting; format: cell-based; conditions: serum-starved; background Erk1/2 level high
Protocol: FIG. 18. […] HaCAT keratinocytes were serum-starved and incubated with wt NRG1 (175-222) or 3KE (175-222). The levels of Erk1/2 activation were determined by Western blotting.

[3] = test system: Met-1 mouse breast cancer; assay: Met-1 mouse breast cancer transplanted to fat pad of FVB syngeneic mice; format: in vivo; conditions: 200 ng/mouse/day intraperitoneally from day 5
Protocol: FIG. 23. Effect of the 3KE (175-241) mutation on in vivo tumorigenesis. Top: Growth curve. […] (P<0.0001 by two way ANOVA.) Bottom: Tumor size at day 18.
In the present invention, Met-1 mouse breast cancer fragment (2×2×2 mm) was transplanted to fat pad of FVB syngeneic mice (2 per animal, 5-6 mice per group) (day 0). At day 5, intraperitoneal injection of 200 ng/mouse/day wt NRG1, 3KE, heat-denatured 3KE or vehicle (PBS) everyday were started (FIG. 23). PBS contains 0.1 mg/ml mouse serum albumin as carrier. Tumor size was measured using caliper twice a week (FIG. 23). Tumor size was calculated using V=0.4×(a×b×b) where a is the longest diameter and b is a diameter perpendicular to a. Statistical analysis was performed using Prism software package.

| Molecule | D1 cyclin levels in B16F10 cells (B16F10 melanoma cells) | ERK1/2 activation in B16F10 cells (B16F10 melanoma cells) | Tumor growth of Met-1 in nude mice [1] | Outgrowth of MIN-O in FVB mice [2] | ERK1/2 activation in HaCAT cells (HaCAT keratinocytes) | AKT activation in B16F10 cells (B16F10 melanoma cells) | Tumor growth curve of Met-1 in FVB mice ([3]; P<0.0001 by two way ANOVA) | Tumor size at day 18, Met-1 in FVB mice ([3]; t-test) |
| --- | --- | --- | --- | --- | --- | --- | --- | --- |
| 3KE (175-222): NRG1 (175-222) with Lys181/Lys185/Lys187 mutated to Glu; GTSHLVECAEEEETFCVNGGECFMVKDLSNPSRYLCKCQPGFTGARCT (SEQ ID NO:11) (integrin-binding site within human neuregulin, 3KE mutant, short version) | suppressed D1 cyclin levels very rapidly | did not induce them | markedly suppressed tumor growth | effectively suppressed the outgrowth of MIN-O tumors | suppressed levels of ERK1/2 activation | – | – | – |
| wt NRG1 (175-222): wild type human neuregulin 1 fragment, EGF-like domain, residues 175-222 of SEQ ID NO:4 (SEQ ID NO:3) (GTSHLVKCAEKEKTFCVNGGECFMVKDLSNPSRYLCKCQPGFTGARCT; integrin-binding site within human neuregulin 1 EGF-like region and portion of alpha domain, residues 175-222 of human neuregulin 1 alpha) [reference compound] | – | induced | – | – | – | induced | – | – |
| B1 | – | – | – | – | – | – | suppressed tumor growth | suppressed tumor growth |
